How the values were obtained:
PI3Kδ = PI3Kδ (Homo sapiens (Human), UniProt O00329); experiment: Enzymatic activity of PI3K isoforms, TR-FRET assay (PI3Kδ); format: biochemical; conditions: 2× Km ATP, geometric mean if more than one value
Procedure: Enzymatic activity of the class I PI3K isoforms in the presence of the compounds of Table 1 and Compounds X, Y and Z was measured using a time-resolved fluorescence resonance energy transfer (TR-FRET) assay. The TR-FRET assay was used to monitor formation of the product 3,4,5-inositol triphosphate molecule (PIP3) as it competed with fluorescently labeled PIP3 for binding to the GRP-1 pleckstrin homology domain protein. An increase in […] product results in a decrease in TR-FRET signal as the labeled fluorophore is displaced from the GRP-1 protein binding site.
Class I PI3K isoforms were expressed and purified as heterodimeric recombinant proteins. All assay reagents and buffers for the TR-FRET assay were purchased from Millipore. PI3K isoforms were assayed under initial rate conditions in the presence of 25 mM Hepes (pH 7.4), and 2× Km ATP (75-500 μM), 2 μM PIP2, 5% glycerol, 5 mM MgCl2, 50 mM NaCl, 0.05% (v/v) Chaps, 1 mM dithiothreitol, 1% (v/v) DMSO at the following concentrations for each isoforms: PI3Kα, PI3Kβ, and PI3Kδ between 25 and 50 pM, and PI3Kγ at 2 nM. After an assay reaction time of 30 minutes at 25° C., reactions were terminated with a final concentration of 10 mM EDTA, 10 nM labeled-PIP3, and 35 nM Europium labeled GRP-1 detector protein before reading TR-FRET on an Envision plate reader (Ex: 340 nm; Em: 615/665 nm; […] delay and 500 μs read window).
Data were normalized based on positive ([…] wortmanin) and negative (DMSO) controls. α, β, δ, and γ IC50 values were calculated from the fit of the dose-response curves to a four-parameter equation. All IC50 values represent geometric mean values if more than one value was obtained. IC50 values were reported in units of nM.

basophils = experiment: Basophil activation in human whole blood (Flow2 CAST kit, CD63 flow cytometry); format: cell-based
Procedure: Effect on basophil activation was measured in human whole blood using the Flow2 CAST® kit (Buhlmann Laboratories AG, Baselstrasse, Switzerland) following the protocol provided by the manufacturer with minor modifications. Human whole blood was collected into K2-EDTA venipuncture tubes. Whole blood samples were treated with either DMSO (0.3% final) or a serial dilution of compounds in DMSO for 60 minutes at 37° C. Basophils were then activated either with anti-FcεRI mAb or with fMLP. To activate basophils using the anti-FcεRI mAb; 50 μL of whole blood was mixed with 110 μL of stimulation buffer (B-BAT-STB) and 20 μl of anti-FcεRI (B-BAT-STCON). To activate basophils with fMLP; 50 μL of whole blood was mixed with 80 μL of stimulation buffer (B-BAT-STB) and 50 μL of fMLP (B-CCR-FMLP). Stimulation buffer was used as a negative control. 20 μL of the staining reagent (combination of anti-human CD63-FITC and anti-human CCR3-PE mAbs) was then added to each tube. The tubes were mixed gently and incubated for 25 minutes at 37° C. Subsequently, erythrocytes were lysed and fixed by the addition of 2 mL of lysing solution (B-BAT-LYR) for 10 minutes at room temperature. Cells were pelleted by centrifugation at 1200 rpm for 10 minutes at room temperature in a swing-out rotor. Supernatant was aspirated and cell pellet resuspended in 400 μL of wash buffer. Flow cytometric analysis of the basophil activation was performed on a FC500MPL flow cytometer (Beckman Coulter Inc., Fullerton, Calif.). CCR3-staining and side scatter were applied to gate at least 200 basophils that expressed a high density of CCR3. The percent CD63 positive cells within the gated basophil population were determined in different treatment groups and normalized to the vehicle control (0.3% DMSO) with anti-FcεRI mAb of fMLP stimulus as 100%. Final compound concentration was adjusted to correct for dilution effect of added reagents. The EC50 values were calculated from the analysis of the dose-response curves to a four-parameter equation.

[1] = Hepatocyte stability (parent drug disappearance in cryopreserved hepatocytes); format: in vitro ADME, human; conditions: human, human hepatocytes
Procedure: This assay was used to evaluate the metabolic stability of test articles (TA) following incubation in cryopreserved hepatocytes by monitoring parent drug disappearance via LC/MC. The TA was incubated with 1 million hepatocytes/mL at 2 μM substrate in duplicate. The incubation was carried out at 37° C. with 5% CO2 and saturating humidity. Samples were taken at 0, 1, 2, and 4 hours to monitor the disappearance of TA and a half-life (t1/2) was determined. Table 3 below summarizes the human hepatocyte t1/2 values (hours) collected in the Example.

[2] = Homo sapiens, class symbol, human whole blood, basophils activated with anti-FcεRI mAb or fMLP, percent CD63 positive cells
[3] = Homo sapiens, human whole blood, basophils activated with anti-FcεRI mAb or fMLP, percent CD63 positive cells, geometric mean
[4] = cryopreserved human hepatocytes, class symbol, 2 μM substrate, 37° C.
[5] = cryopreserved human hepatocytes, 2 μM substrate, 37° C., Table 3
[6] = Homo sapiens, basophil activation in human whole blood, comparison Table 4
[7] = cryopreserved hepatocytes, comparison Table 4
[8] = human whole blood, basophils activated with anti-FcεRI mAb or fMLP, percent CD63 positive cells, geometric mean

Sequence of PI3Kδ (O00329 whole entry, the tested form may be a part, canonical isoform): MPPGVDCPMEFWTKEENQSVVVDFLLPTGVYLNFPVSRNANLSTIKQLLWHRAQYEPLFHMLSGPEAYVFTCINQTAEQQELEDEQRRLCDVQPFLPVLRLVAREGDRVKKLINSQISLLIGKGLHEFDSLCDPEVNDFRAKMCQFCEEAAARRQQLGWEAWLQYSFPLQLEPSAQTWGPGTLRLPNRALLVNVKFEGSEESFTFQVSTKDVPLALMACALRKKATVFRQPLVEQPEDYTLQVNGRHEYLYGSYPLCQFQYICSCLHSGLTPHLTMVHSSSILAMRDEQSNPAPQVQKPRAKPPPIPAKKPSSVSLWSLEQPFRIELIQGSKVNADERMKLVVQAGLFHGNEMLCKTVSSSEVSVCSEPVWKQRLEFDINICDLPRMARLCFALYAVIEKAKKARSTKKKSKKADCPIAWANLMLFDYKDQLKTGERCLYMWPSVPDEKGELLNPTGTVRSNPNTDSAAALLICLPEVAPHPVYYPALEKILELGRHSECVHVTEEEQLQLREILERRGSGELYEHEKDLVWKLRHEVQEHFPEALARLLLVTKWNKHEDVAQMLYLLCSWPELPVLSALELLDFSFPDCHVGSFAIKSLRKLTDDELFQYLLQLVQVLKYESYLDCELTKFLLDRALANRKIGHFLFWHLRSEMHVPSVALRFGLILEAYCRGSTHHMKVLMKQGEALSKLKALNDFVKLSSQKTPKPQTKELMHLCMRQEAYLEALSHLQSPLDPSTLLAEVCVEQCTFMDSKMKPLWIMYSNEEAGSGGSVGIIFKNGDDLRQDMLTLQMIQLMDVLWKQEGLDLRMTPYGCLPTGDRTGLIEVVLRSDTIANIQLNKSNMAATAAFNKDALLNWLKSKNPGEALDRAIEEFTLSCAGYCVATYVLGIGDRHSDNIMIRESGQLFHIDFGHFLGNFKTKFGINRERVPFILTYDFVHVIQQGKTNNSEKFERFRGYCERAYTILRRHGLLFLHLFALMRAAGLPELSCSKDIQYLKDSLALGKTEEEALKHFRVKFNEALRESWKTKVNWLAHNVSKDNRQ
Sequence of PI3Kδ (P27986 whole entry partner, the tested form may be a part, canonical isoform): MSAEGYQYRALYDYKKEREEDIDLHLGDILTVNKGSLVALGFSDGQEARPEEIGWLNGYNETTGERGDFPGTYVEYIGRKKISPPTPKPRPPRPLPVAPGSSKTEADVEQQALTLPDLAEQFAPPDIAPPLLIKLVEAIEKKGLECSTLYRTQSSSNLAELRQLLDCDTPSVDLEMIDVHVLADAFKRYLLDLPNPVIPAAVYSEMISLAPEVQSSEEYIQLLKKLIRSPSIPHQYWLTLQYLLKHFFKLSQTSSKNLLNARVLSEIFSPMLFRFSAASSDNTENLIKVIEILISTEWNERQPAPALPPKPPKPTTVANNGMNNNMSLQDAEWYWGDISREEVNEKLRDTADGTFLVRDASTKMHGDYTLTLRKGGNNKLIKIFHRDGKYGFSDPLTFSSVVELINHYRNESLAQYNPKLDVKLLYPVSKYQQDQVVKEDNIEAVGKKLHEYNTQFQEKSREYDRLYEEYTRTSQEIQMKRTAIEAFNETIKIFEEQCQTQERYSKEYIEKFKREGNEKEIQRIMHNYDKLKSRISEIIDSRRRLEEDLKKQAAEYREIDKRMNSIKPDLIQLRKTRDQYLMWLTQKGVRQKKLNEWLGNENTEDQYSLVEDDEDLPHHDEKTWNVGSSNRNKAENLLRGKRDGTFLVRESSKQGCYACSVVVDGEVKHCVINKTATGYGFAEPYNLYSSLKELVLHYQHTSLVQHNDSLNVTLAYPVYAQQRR

IC50 (PI3Kδ) | EC50 (basophils; [2]) | EC50 (basophils; [3]) | Structure (SMILES) | other results
1 nM | < 1 nM | 0.7 nM | N#Cc1c(N)nc(N)nc1N[C@H](c1nc2c(F)ccc(Cl)c2c(=O)n1-c1cccnc1)C1CC1 [Compound 27, (S)-2,4-diamino-6-((5-chloro-8-fluoro-4-oxo-3-(pyridin-3-yl)-3,4-dihydroquinazolin-2-yl)(cyclopropyl)methylamino)pyrimidine-5-carbonitrile] | half-life at 2 μM [1, 4]: > 10 h; half-life at 2 μM [1, 5]: > 10 h
38 nM | – | – | Cc1c(F)cncc1-n1c([C@H](C)Nc2nc(N)nc(N)c2C#N)nc2cccc(Cl)c2c1=O (atropisomer, axis not shown) [Compound 46, (S)-2,4-diamino-6-(1-(5-chloro-3-(5-fluoro-4-methylpyridin-3-yl)-4-oxo-3,4-dihydroquinazolin-2-yl)ethylamino)pyrimidine-5-carbonitrile] | half-life at 2 μM [1, 4]: 6 to 10 h; half-life at 2 μM [1, 5]: 8 h
– | – | – | C[C@H](Nc1ncnc2[nH]cnc12)c1nc2cccc(Cl)c2c(=O)n1-c1ccccc1 [Compound X, reference compound] | EC50 (basophils; [6]): > 5 nM; half-life at 2 μM [1, 7]: < 2 h
18 nM | 10 to 50 nM | 22 nM | C[C@H](Nc1nc(N)nc(N)c1C#N)c1nc2cccc(Cl)c2c(=O)n1-c1cncc(C(F)(F)F)c1 [Compound 18, (S)-2,4-diamino-6-(1-(5-chloro-4-oxo-3-(5-(trifluoromethyl)pyridin-3-yl)-3,4-dihydroquinazolin-2-yl)ethylamino)pyrimidine-5-carbonitrile] | –
4 nM | – | – | Cc1ccncc1-n1c([C@H](C)Nc2nc(N)nc(N)c2C#N)nc2ccc(F)c(Cl)c2c1=O (atropisomer, axis not shown) [Compound 43, (S)-2,4-diamino-6-(1-(5-chloro-6-fluoro-3-(4-methylpyridin-3-yl)-4-oxo-3,4-dihydroquinazolin-2-yl)ethylamino)pyrimidine-5-carbonitrile] | EC50 (basophils; class symbol, human whole blood, basophils activated with anti-FcεRI mAb or fMLP, percent CD63 positive cells): 1 to 10 nM; EC50 (basophils; [8]): 2 nM
35 nM | > 50 nM | 62 nM | CC[C@H](Nc1nc(N)nc(N)c1C#N)c1nc2c(F)ccc(C#N)c2c(=O)n1-c1cccnc1 [Compound 35, (S)-2-(1-((2,6-diamino-5-cyanopyrimidin-4-yl)amino)propyl)-8-fluoro-4-oxo-3-(pyridin-3-yl)-3,4-dihydroquinazoline-5-carbonitrile] | –
5 nM | 10 to 50 nM | 16 nM | N#Cc1c(N)nc(N)nc1N[C@H](c1nc2ccc(F)c(Cl)c2c(=O)n1-c1cccnc1)C1CC1 [Compound 37, (S)-2,4-diamino-6-((5-chloro-6-fluoro-4-oxo-3-(pyridin-3-yl)-3,4-dihydroquinazolin-2-yl)(cyclopropyl)methylamino)pyrimidine-5-carbonitrile] | –
27 nM | 1 to 10 nM | – | Cc1ccncc1-n1c([C@H](C)Nc2nc(N)nc(N)c2C#N)nc2ccc(F)c(Cl)c2c1=O (atropisomer, axis not shown) [Compound 42, (S)-2,4-diamino-6-(1-(5-chloro-6-fluoro-3-(4-methylpyridin-3-yl)-4-oxo-3,4-dihydroquinazolin-2-yl)ethylamino)pyrimidine-5-carbonitrile] | EC50 (basophils; [8]): 8 nM
– | – | – | C[C@H](Nc1ncnc(N)c1C#N)c1nc2cccc(Cl)c2c(=O)n1-c1ccccc1 [Compound Y, reference compound] | EC50 (basophils; [6]): > 10 nM; half-life at 2 μM [1, 7]: < 2 h
– | – | – | C[C@H](Nc1nc(N)nc(N)c1C#N)c1nc2cccc(Cl)c2c(=O)n1-c1ccccc1 [Compound Z, reference compound] | EC50 (basophils; basophil activation in human whole blood, comparison Table 4): < 1 nM; half-life at 2 μM [1, 7]: < 5 h
0.4 nM | < 1 nM | 0.3 nM | Cc1cccc2nc([C@H](C)Nc3nc(N)nc(N)c3C#N)n(-c3cccnc3)c(=O)c12 [Compound 7, (S)-2,4-diamino-6-(1-(5-methyl-4-oxo-3-(pyridin-3-yl)-3,4-dihydroquinazolin-2-yl)ethylamino)pyrimidine-5-carbonitrile] | –
21 nM | 10 to 50 nM | 22 nM | C[C@H](Nc1nc(N)nc(N)c1C#N)c1nc2c(F)ccc(C#N)c2c(=O)n1-c1cccnc1 [Compound 34, (S)-2-(1-((2,6-diamino-5-cyanopyrimidin-4-yl)amino)ethyl)-8-fluoro-4-oxo-3-(pyridin-3-yl)-3,4-dihydroquinazoline-5-carbonitrile] | –
9 nM | > 50 nM | 100 nM | C[C@H](Nc1nc(N)nc(N)c1C#N)c1nc2cccc(S(C)(=O)=O)c2c(=O)n1-c1cccnc1 [Compound 8, (S)-2,4-diamino-6-(1-(5-(methylsulfonyl)-4-oxo-3-(pyridin-3-yl)-3,4-dihydroquinazolin-2-yl)ethylamino)pyrimidine-5-carbonitrile] | –
13 nM | 1 to 10 nM | – | Cc1ncccc1-n1c([C@H](C)Nc2nc(N)nc(N)c2C#N)nc2cccc(Cl)c2c1=O (atropisomer, axis not shown) [Compound 38, (S)-2,4-diamino-6-(1-(5-chloro-3-(2-methylpyridin-3-yl)-4-oxo-3,4-dihydroquinazolin-2-yl)ethylamino)pyrimidine-5-carbonitrile] | EC50 (basophils; [8]): 9 nM
4 nM | 1 to 10 nM | 2 nM | C[C@H](Nc1nc(N)nc(N)c1C#N)c1nc2ccc(F)c(Cl)c2c(=O)n1-c1cccnc1 [Compound 36, (S)-2,4-diamino-6-(1-(5-chloro-6-fluoro-4-oxo-3-(pyridin-3-yl)-3,4-dihydroquinazolin-2-yl)ethylamino)pyrimidine-5-carbonitrile] | –
1 nM | < 1 nM | 0.7 nM | Cc1cncc(-n2c([C@H](C)Nc3nc(N)nc(N)c3C#N)nc3cccc(Cl)c3c2=O)c1 [Compound 16, (S)-2,4-diamino-6-(1-(5-chloro-3-(5-methylpyridin-3-yl)-4-oxo-3,4-dihydroquinazolin-2-yl)ethylamino)pyrimidine-5-carbonitrile] | –
8 nM | 10 to 50 nM | 11 nM | C[C@H](Nc1nc(N)nc(N)c1C#N)c1nc2c(F)ccc(F)c2c(=O)n1-c1cccnc1 [Compound 25, (S)-2,4-diamino-6-(1-(5,8-difluoro-4-oxo-3-(pyridin-3-yl)-3,4-dihydroquinazolin-2-yl)ethylamino)pyrimidine-5-carbonitrile] | –
9 nM | 10 to 50 nM | 17 nM | C[C@H](Nc1nc(N)nc(N)c1C#N)c1nc2cccc(C#N)c2c(=O)n1-c1cccnc1 [Compound 10, (S)-2-(1-((2,6-diamino-5-cyanopyrimidin-4-yl)amino)ethyl)-4-oxo-3-(pyridin-3-yl)-3,4-dihydroquinazoline-5-carbonitrile] | –
